According to paper PMC10363545, “The potential use of glycosyl-transferase inhibitors for targeted reduction of S. mutans biofilms in dental materials” (Scientific Reports, 2023):

How the values were obtained:
GTF-B = target: T1, GTF-B (Streptococcus mutans, UniProt P08987); assay: pNPG hydrolysis kinetics with recombinant enzyme (Vmax reduced […]); gel zymography at […] ([…] inhibition); format: biochemical
T1 construct: gene gtfB; recombinant GTF-B

GTF-C = target: T2, GTF-C (Streptococcus mutans, UniProt P13470); assay: dynamic light scattering glucan polymerization assay with recombinant GTF-C at […] sucrose; also pNPG hydrolysis kinetics and gel zymography; format: biochemical
T2 construct: gene gtfC; recombinant GTF-C
T2 sequence (P13470 35-1455): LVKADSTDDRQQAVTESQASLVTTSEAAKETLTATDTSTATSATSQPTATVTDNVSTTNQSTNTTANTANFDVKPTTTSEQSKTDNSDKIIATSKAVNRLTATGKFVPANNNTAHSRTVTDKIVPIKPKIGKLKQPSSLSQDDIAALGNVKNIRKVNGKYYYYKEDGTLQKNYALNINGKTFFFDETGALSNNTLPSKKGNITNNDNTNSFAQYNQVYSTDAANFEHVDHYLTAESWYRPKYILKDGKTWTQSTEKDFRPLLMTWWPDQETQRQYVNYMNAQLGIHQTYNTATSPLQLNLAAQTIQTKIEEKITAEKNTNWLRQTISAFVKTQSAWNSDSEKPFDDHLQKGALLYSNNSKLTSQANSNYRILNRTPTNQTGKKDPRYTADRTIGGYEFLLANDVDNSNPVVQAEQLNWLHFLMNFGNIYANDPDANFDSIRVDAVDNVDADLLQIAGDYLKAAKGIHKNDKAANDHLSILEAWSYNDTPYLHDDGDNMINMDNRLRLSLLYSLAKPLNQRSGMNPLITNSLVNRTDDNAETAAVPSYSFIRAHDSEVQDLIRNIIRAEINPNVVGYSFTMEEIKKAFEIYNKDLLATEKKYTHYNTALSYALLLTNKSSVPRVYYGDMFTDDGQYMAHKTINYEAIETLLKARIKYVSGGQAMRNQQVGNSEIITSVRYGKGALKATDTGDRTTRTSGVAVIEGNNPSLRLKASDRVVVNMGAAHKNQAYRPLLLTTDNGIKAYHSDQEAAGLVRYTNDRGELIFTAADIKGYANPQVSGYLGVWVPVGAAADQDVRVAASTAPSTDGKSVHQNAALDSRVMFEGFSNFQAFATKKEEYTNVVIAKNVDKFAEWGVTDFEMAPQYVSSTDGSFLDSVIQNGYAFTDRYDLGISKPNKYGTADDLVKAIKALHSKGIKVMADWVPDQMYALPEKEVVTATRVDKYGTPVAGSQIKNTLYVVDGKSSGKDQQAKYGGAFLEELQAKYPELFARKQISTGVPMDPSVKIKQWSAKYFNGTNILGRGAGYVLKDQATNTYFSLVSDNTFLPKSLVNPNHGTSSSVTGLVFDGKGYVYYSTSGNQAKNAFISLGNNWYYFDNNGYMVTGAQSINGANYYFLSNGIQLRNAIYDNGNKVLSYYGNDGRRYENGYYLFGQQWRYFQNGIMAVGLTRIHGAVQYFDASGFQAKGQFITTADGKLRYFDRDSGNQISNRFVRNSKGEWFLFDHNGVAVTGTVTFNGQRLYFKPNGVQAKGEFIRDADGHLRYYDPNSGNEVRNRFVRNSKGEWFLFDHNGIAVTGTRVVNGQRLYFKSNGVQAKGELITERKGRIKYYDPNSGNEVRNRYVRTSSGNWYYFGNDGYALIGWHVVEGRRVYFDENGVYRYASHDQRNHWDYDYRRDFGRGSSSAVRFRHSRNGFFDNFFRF

T1 sequence (P08987 35-1476): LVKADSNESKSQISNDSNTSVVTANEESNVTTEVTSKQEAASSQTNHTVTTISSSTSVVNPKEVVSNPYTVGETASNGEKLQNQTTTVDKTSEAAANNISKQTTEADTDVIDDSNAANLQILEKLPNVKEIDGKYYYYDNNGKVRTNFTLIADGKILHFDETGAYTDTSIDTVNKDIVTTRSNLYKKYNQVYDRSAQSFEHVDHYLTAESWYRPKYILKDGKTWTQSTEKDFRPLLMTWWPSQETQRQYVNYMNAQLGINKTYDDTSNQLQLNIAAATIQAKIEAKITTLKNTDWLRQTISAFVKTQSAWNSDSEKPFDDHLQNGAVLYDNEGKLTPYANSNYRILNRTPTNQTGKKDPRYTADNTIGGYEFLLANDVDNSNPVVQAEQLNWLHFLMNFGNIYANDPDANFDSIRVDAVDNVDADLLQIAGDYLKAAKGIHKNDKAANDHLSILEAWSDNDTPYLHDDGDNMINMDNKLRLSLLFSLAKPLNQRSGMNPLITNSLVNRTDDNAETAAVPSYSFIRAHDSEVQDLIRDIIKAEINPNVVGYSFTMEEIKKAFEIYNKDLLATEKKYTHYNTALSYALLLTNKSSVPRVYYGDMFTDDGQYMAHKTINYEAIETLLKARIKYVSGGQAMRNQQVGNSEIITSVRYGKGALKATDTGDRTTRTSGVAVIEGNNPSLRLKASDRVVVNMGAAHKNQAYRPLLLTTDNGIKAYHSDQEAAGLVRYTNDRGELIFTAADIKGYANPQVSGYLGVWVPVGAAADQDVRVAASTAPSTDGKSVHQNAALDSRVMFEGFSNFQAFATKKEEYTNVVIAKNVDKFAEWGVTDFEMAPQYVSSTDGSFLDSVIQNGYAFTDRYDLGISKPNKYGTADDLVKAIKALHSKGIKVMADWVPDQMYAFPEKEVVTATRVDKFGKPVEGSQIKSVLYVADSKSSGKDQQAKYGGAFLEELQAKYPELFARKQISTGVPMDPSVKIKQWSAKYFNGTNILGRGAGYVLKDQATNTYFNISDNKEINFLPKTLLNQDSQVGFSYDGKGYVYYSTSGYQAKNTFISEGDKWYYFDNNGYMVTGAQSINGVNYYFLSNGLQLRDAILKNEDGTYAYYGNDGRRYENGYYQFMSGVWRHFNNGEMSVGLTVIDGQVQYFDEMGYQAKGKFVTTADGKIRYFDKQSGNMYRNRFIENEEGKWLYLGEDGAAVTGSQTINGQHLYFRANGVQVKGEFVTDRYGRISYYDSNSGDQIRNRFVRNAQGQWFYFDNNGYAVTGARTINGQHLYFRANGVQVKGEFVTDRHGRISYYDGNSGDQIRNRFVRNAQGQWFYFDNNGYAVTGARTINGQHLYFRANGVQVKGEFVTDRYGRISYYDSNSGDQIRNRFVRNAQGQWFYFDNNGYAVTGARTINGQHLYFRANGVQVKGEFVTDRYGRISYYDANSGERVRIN

Structure (SMILES): NC(=O)c1cc(OCCOCCOCCOCCO)ccc1NC(=O)c1cc2cc([N+](=O)[O-])ccc2s1 [G43-C3-TEG]
- % reduction of Vmax (GTF-B): 39 % reduction of Vmax
- IC50 (GTF-C): 23.5 µM
